Laboratory results published in patent US20250129086A1, “COMPOUND FOR DEGRADING EGFR PROTEIN AND USE THEREOF” (TYK MEDICINES, INC., priority 2021, published 2025).

Key:
Type in all cases: cell-based, human
[1] = tested on: H1975 (EGFR L858R/T790M double mutation); assay: Cell antiproliferative assay (CTG, 72 h), H1975; conditions: Table 2, H1975 cells
Method in brief: (§1)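 Viability by CTG luminescence after 72 h compound exposure, normalised between blank medium and 0.1% DMSO controls, with IC50 from fitted curves. Dosing in triplicate, top 10,000 nM, 4-fold dilutions, applied about 24 h after plating 1500-2500 cells per well.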

[2] = tested on: PC-9 (EGFR exon 19 deletion); assay: Cell antiproliferative assay (CTG, 72 h), PC-9; conditions: Table 2, PC-9 cells
Method in brief: as §1

[3] = tested on: HCC827 (exon 19 deletion mutation); assay: Cell antiproliferative assay (CTG, 72 h), HCC827; conditions: Table 2, HCC827 cells
Method in brief: as §1

Structure (SMILES) | IC50 ([1]; Homo sapiens, NCI-H1975, 72 h) [nM] | IC50 ([2]; Homo sapiens, PC-9, 72 h) [nM] | IC50 ([3]; Homo sapiens, HCC827, 72 h) [nM] | IC50 [1] [nM] | IC50 [2] [nM] | IC50 [3] [nM]
COc1cc(N2CCN(C(=O)CN3CCN(c4ccc(NC5CCC(=O)NC5=O)cc4)CC3)CC2)ccc1Nc1ncc(Cl)c(Nc2ccccc2C(C)=O)n1 (stereo not drawn) [Compound T-82] | 100 to 1000 | ≥ 1000 | ≥ 1000 |  |  | 
COc1cc(N2CCN(C(=O)CN3CCC(c4ccc(NC5CCC(=O)NC5=O)cc4)CC3)CC2)c(C)cc1Nc1ncc(Br)c(Nc2ccccc2C(C)=O)n1 (stereo not drawn) [Compound T-59] | 10 to 100 | 100 to 1000 | 100 to 1000 |  |  | 
O=C1CCC(Nc2ccc(C3CCN(CC(=O)N4CCN(c5ccc(-c6cc(F)c7c(c6)C(=O)N(C(C(=O)Nc6nccs6)c6ccccc6F)C7)cc5)CC4)CC3)cc2)C(=O)N1 (stereo not drawn) [Compound T-140] | 10 to 100 | 100 to 1000 | 100 to 1000 |  |  | 
COc1cc(N2CCN(C(=O)CN3CCC(c4ccc(NC5CCC(=O)NC5=O)cc4)CC3)CC2)ccc1Nc1ncc(Cl)c(Nc2cccc3c2C(=O)N(C)C3)n1 (stereo not drawn) [Compound T-268] | 10 to 100 | 10 to 100 | 10 to 100 |  |  | 
CNC(=O)c1ccccc1Nc1nc(Nc2cc(C)c(N3CCN(C(=O)CN4CCC(c5ccc(NC6CCC(=O)NC6=O)cc5)CC4)C(C)C3)cc2OC)ncc1Cl (stereo not drawn) [Compound T-355] | 10 to 100 | 10 to 100 | 10 to 100 |  |  | 
COc1cc(N2CC[C@@H](N(C)C(=O)CN3CCC(c4ccc(NC5CCC(=O)NC5=O)cc4)CC3)C2)ccc1Nc1ncc(Cl)c(Nc2ccccc2C(C)=O)n1 (stereo partly drawn) [Compound T-171] | 10 to 100 | ≥ 1000 | 100 to 1000 |  |  | 
COc1cc(OC2CCN(C(=O)CN3CCC(c4ccc(NC5CCC(=O)NC5=O)cc4)CC3)CC2)ccc1Nc1ncc(Cl)c(Nc2ccccc2C(C)=O)n1 (stereo not drawn) [Compound T-214] | 100 to 1000 | ≥ 1000 | 100 to 1000 |  |  | 
COc1cc(N2CCN(C(=O)CN3CCN(c4ccc5c(c4)CN(C4CCC(=O)NC4=O)C5=O)CC3)CC2)ccc1Nc1ncc(Cl)c(Nc2ccccc2C(C)=O)n1 (stereo not drawn) [Compound T-109] | 100 to 1000 | ≥ 1000 | ≥ 1000 |  |  | 
COc1cc(N2CC[C@@H](NC(=O)CN3CCC(c4ccc(NC5CCC(=O)NC5=O)cc4)CC3)C2)ccc1Nc1ncc(Cl)c(Nc2ccccc2C(C)=O)n1 (stereo partly drawn) [Compound T-173] | 100 to 1000 | ≥ 1000 | 100 to 1000 |  |  | 
COc1cc(N2CCN(C(=O)CN3CCC(c4ccc(NC5CCC(=O)NC5=O)cc4)CC3)CC2)ccc1Nc1ncc(C(F)(F)F)c(Nc2ccccc2)n1 (stereo not drawn) [Compound T-02] | 10 to 100 | 100 to 1000 | ≥ 1000 |  |  | 
CNC(=O)c1ccccc1Nc1nc(Nc2cc(C#N)c(N3CCN(C(=O)CN4CCC(c5ccc(NC6CCC(=O)NC6=O)cc5)CC4)CC3)cc2OC)ncc1Cl (stereo not drawn) [Compound T-283] | ≤ 10 | 10 to 100 | 10 to 100 |  |  | 
CNC(=O)c1ccccc1Nc1nc(Nc2cc(C)c(N3CCN(C(=O)CN4CCC(c5ccc(NC6CCC(=O)NC6=O)cc5)CC4)C(C)C3)cc2OC)ncc1Br (stereo not drawn) [Compound T-356] | 10 to 100 | 10 to 100 | 10 to 100 |  |  | 
COc1cc(N2CCN(C(=O)CN3CCC(c4ccc(NC5CCC(=O)NC5=O)cc4)CC3)CC2)ccc1Nc1ncc(Cl)c(Nc2ccc(Cl)cc2C(C)(C)O)n1 (stereo not drawn) [Compound T-243] | ≤ 10 | 10 to 100 | 10 to 100 |  |  | 
COc1cc(N2CCN(C(=O)CN3CCC(c4ccc(NC5CCC(=O)NC5=O)cc4)C3)CC2)ccc1Nc1ncc(Cl)c(Nc2ccccc2C(C)=O)n1 (stereo not drawn) [Compound T-242] | 100 to 1000 | 100 to 1000 | 100 to 1000 |  |  | 
COc1cc(N2CCN(C(=O)CN3CCC(c4ccc(NC5CCC(=O)NC5=O)cc4)CC3)CC2)c(C)cc1Nc1ncc(Cl)c(Nc2ccccc2C(=O)N(C)C)n1 (stereo not drawn) [Compound T-241] | ≤ 10 | 100 to 1000 | 100 to 1000 |  |  | 
COc1cc(N2CCN(C(=O)CN3CCC(c4ccc(NC5CCC(=O)NC5=O)cc4)CC3)CC2)ccc1Nc1ncc(Cl)c(Nc2ccccc2OC)n1 (stereo not drawn) [Compound T-200] | 10 to 100 | 100 to 1000 | 100 to 1000 |  |  | 
COc1cc(C2CCN(C(=O)CN3CCC(c4ccc(NC5CCC(=O)NC5=O)cc4)CC3)CC2)ccc1Nc1ncc(Cl)c(Nc2ccccc2C(C)=O)n1 (stereo not drawn) [Compound T-69] |  |  |  | 100 to 1000 | 100 to 1000 | 100 to 1000
CP(C)(=O)c1ccccc1Nc1nc(Nc2ccc(N3CCN(C(=O)CN4CCC(c5ccc(NC6CCC(=O)NC6=O)cc5)CC4)CC3)cc2Cl)ncc1Cl (stereo not drawn) [Compound T-330] | 100 to 1000 | 100 to 1000 | 100 to 1000 |  |  | 
COc1cc(N2CCN(CC3CCN(c4ccc5c(c4)C(=O)N(C4CCC(=O)NC4=O)C5=O)CC3)CC2)ccc1Nc1ncc(Cl)c(Nc2ccccc2C(C)=O)n1 (stereo not drawn) [Compound T-226] | 100 to 1000 | ≥ 1000 | 100 to 1000 |  |  | 
COc1cc(N2CCN(C(=O)CN3CCC(c4ccc(NC5CCC(=O)NC5=O)cc4)CC3)CC2)ccc1Nc1ncc(C(F)(F)F)c(Nc2ccc(F)cc2)n1 (stereo not drawn) [Compound T-52] |  |  |  | 10 to 100 | ≥ 1000 | 100 to 1000
COc1cc(N2CCC(CN3CCN(c4ccc5c(c4)C(=O)N(C4CCC(=O)NC4=O)C5=O)CC3)CC2)ccc1Nc1ncc(Cl)c(Nc2ccccc2C(C)=O)n1 (stereo not drawn) [Compound T-225] | 100 to 1000 | ≥ 1000 | ≥ 1000 |  |  | 
COc1cc(N2CCN(C(=O)CN3CCC(c4ccc(NC5CCC(=O)NC5=O)cc4)CC3)CC2)ccc1Nc1ncc(Cl)c(Nc2ccccc2NS(C)(=O)=O)n1 (stereo not drawn) [Compound T-218] | 10 to 100 | 100 to 1000 | 10 to 100 |  |  | 
COc1cc(N2CCN(C(=O)CN3CCC(c4ccc(NC5CCC(=O)NC5=O)cc4)CC3)CC2)ccc1Nc1ncc(C(F)(F)F)c(-c2cn(C)c3ccccc23)n1 (stereo not drawn) [Compound T-135] | 100 to 1000 | ≥ 1000 | 100 to 1000 |  |  | 
CNC(=O)c1ccccc1Nc1nc(Nc2cc(C)c(N3CCN(C(=O)CN4CCC(c5ccc(NC6CCC(=O)NC6=O)cc5F)CC4)CC3)cc2OC)ncc1C(F)(F)F (stereo not drawn) [Compound T-369] | 10 to 100 | 10 to 100 | 10 to 100 |  |  | 
COc1cc(N2CCN(C(=O)CN3CCC(c4ccc(NC5CCC(=O)NC5=O)cc4)CC3)CC2)c(C#N)cc1Nc1ncc(Br)c(Nc2ccccc2C(C)=O)n1 (stereo not drawn) [Compound T-286] | 10 to 100 | 10 to 100 | 10 to 100 |  |  | 
COc1cc(N2CCN(C(=O)CN3CCC(c4cccc(NC5CCC(=O)NC5=O)c4)CC3)CC2)ccc1Nc1ncc(Cl)c(Nc2ccccc2C(C)=O)n1 (stereo not drawn) [Compound T-181] | 100 to 1000 | 100 to 1000 | ≥ 1000 |  |  | 
COc1cc(N2CCN(C(=O)CN3CCC(c4ccc(NC5CCC(=O)NC5=O)cc4)CC3)CC2)c(C)cc1Nc1ncc(C(F)(F)F)c(Nc2ccccc2C(C)=O)n1 (stereo not drawn) [Compound T-58] | 10 to 100 | 100 to 1000 | 100 to 1000 |  |  | 
COc1cc(N2CCN(C(=O)CN3CCC(c4ccc(NC5CCC(=O)NC5=O)cc4)CC3)CC2)ncc1Nc1ncc(Cl)c(Nc2ccccc2C(C)=O)n1 (stereo not drawn) [Compound T-244] | 10 to 100 | 10 to 100 | 10 to 100 |  |  | 
COc1cc(N2CCN(C(=O)CN3CCC(c4ccc(NC5CCC(=O)NC5=O)cc4)CC3)CC2)ccc1Nc1ncc(Cl)c(Nc2cccc(C#N)c2)n1 (stereo not drawn) [Compound T-134] | 10 to 100 | ≥ 1000 | ≥ 1000 |  |  | 
